Data reported in patent US20230019280A1, “SUBSTITUTED ISOINDOLONYL 2,2'-BIP[…], ANALOGUES THEREOF, AND METHODS USING SAME” (priority 2019, published 2023).

System: HBsAg
Test: HBsAg assay (inhibition of HBsAg in HepG2.2.15 cells)
Format: cell-based, hepatitis B virus
Settings: Hepatitis B virus, HepG2.2.15, 144 h, read-out: sAg EC50, HepG2.2.15 cells; supernatant HBsAg by CLIA at day 6 after exposure of compounds
Method: Inhibition of HBsAg was determined in HepG2.2.15 cells. Cells were maintained in culture medium containing 10% fetal calf serum, […], Glutamine, penicillin/streptomycin. Cells were seeded in 96-well collagen-coated plate at a density of 30,000 cells/well. Serially diluted compounds were added to cells next day at the final DMSO concentration of 0.5%. Cells were incubated with compounds for 2-3 days, after which medium was removed. Fresh medium containing compounds was added to cells for additional 3-4 days. At day 6 after exposure of compounds, supernatant was collected, the HBsAg immunoassay (microplate-based chemiluminescence immunoassay kits, CLIA, Autobio Diagnosics Co., Zhengzhou, China, Catalog #CL0310-2) was used to determine the level of HBsAg according to manufactory instruction. Dose-response curves were generated and the EC50 value (effective concentrations that achieved 50% inhibitory effect) were determined using XLfit software. In addition, cells were seeded at a density of 5,000 cells/well for determination of cell viability in the presence and absence of compounds by using CellTiter-Glo reagent (Promega).

Point of comparison: `O=C1c2cc(F)c(F)cc2CN1c1ccnc(-c2ncccn2)n1` [Example 61, 2-([2,2′-Bipyrimidin]-4-yl)-5,6-difluoroisoindolin-1-one], EC50 450 nM. Against it:
- O=C1c2cc(F)cc(F)c2CCN1c1ccnc(-c2ncccn2)n1 [Example 64, 2-([2,2′-Bipyrimidin]-4-yl)-5,7-difluoro-3,4-dihydroisoquinolin-1(2H)-one] — 11-fold higher, 5000 nM
- COc1cc2c(cc1OC)CN(c1ccnc(-c3ncccn3)n1)C(=O)C2 [Example 65, 2-([2,2′-Bipyrimidin]-4-yl)-6,7-dimethoxy-1,4-dihydroisoquinolin-3(2H)-one] — 11-fold higher, 5000 nM
- CCC1c2cc(F)c(OC(C)C)cc2C(=O)N1c1nc(-c2ncccn2)ncc1F (single isomer, unassigned) [Example 57, 3-Ethyl-5-fluoro-2-(5-fluoro-[2,2′-bipyrimidin]-4-yl)-6-isopropoxyisoindolin-1-one] — 4.1-fold lower, 110 nM
- CCC1c2cc(OC)c(OC)cc2C(=O)N1c1cnc(-c2ncccn2)nc1 (stereo not shown) [Example 30, 3-Ethyl-5,6-dimethoxy-2-(2-pyrimidin-2-ylpyrimidin-5-yl)isoindolin-1-one] — 110-fold higher, 48000 nM
- CCC1c2cc(F)c(OC)cc2C(=O)N1c1ccnc(-c2ncccn2)n1 (stereo not shown) [Example 48, 2-([2,2′-Bipyrimidin]-4-yl)-3-ethyl-5-fluoro-6-methoxyisoindolin-1-one] — 22-fold lower, 20 nM
- COc1cc2c(cc1OC)C(C1CCOCC1)N(c1ccnc(-c3ncccn3)n1)C2=O (stereo not shown) [Example 29, 2-([2,2′-Bipyrimidin]-4-yl)-5,6-dimethoxy-3-(tetrahydro-2H-pyran-4-yl)isoindolin-1-one] — 15-fold lower, 30 nM
- CCC1c2cc(OC)c(OC)cc2C(=O)N1c1cc(C)nc(-c2ncccn2)n1 (stereo not shown) [Example 36, 3-Ethyl-5,6-dimethoxy-2-(6-methyl-[2,2′-bipyrimidin]-4-yl)isoindolin-1-one] — 22-fold higher, 10000 nM
- COc1cc2c(cc1OC)C(=O)N(c1ccnc(-c3ncccn3)n1)CC2 [Example 63, 2-([2,2′-Bipyrimidin]-4-yl)-6,7-dimethoxy-3,4-dihydroisoquinolin-1(2H)-one] — within 1.5-fold, 520 nM
- O=C1c2c(F)cc(F)cc2CN1c1ccnc(-c2ncccn2)n1 [Example 60, 2-([2,2′-Bipyrimidin]-4-yl)-5,7-difluoroisoindolin-1-one] — 1.9-fold higher, 850 nM
- CCCC1c2cc(OC)c(OC)cc2C(=O)N1c1ccnc(-c2ncccn2)n1 (stereo not shown) [Example 38, 2-([2,2′-Bipyrimidin]-4-yl)-5,6-dimethoxy-3-propylisoindolin-1-one] — 45-fold lower, 10 nM
- COc1cc2c(cc1OC)C(C(C)(C)C)N(c1ccnc(-c3ncccn3)n1)C2=O (stereo not shown) [Example 45, 2-([2,2′-Bipyrimidin]-4-yl)-3-(tert-butyl)-5,6-dimethoxyisoindolin-1-one] — 150-fold lower, 3 nM
- CCC1c2cc(F)c(F)cc2C(=O)N1c1cnc(-c2ncccn2)nc1 (single isomer, unassigned) [Example 59, 2-([2,2′-Bipyrimidin]-5-yl)-3-ethyl-5,6-difluoroisoindolin-1-one] — 22-fold higher, 10000 nM
- COc1cc2c(cc1OC)C(=O)N(c1ccnc(-c3ncccn3)n1)C2 [Example 62, 2-([2,2′-Bipyrimidin]-4-yl)-5,6-dimethoxyisoindolin-1-one] — 3.5-fold lower, 130 nM

Same assay, conditions: read-out: sAg EC50; HepG2.2.15 cells; supernatant HBsAg by CLIA at day 6 after exposure of compounds

Point of comparison: `COc1cc2c(cc1OC)C(c1ccccc1)N(c1ccnc(-c3ncccn3)n1)C2=O` (single isomer, unassigned) [Example 44, 2-([2,2′-Bipyrimidin]-4-yl)-5,6-dimethoxy-3-phenylisoindolin-1-one], EC50 160 nM. Against it:
- CCC1c2c(F)cc(Cl)cc2C(=O)N1c1ccnc(-c2ncccn2)n1 (single isomer, unassigned) [Example 8, 2-([2,2′-Bipyrimidin]-4-yl)-6-chloro-3-ethyl-4-fluoroisoindolin-1-one] — 16-fold lower, 10 nM
- CCC1c2cc(OC)c(F)cc2C(=O)N1c1ccnc(-c2ncccn2)n1 (single isomer, unassigned) [Example 51, 2-([2,2′-Bipyrimidin]-4-yl)-3-ethyl-6-fluoro-5-methoxyisoindolin-1-one] — within 1.5-fold, 130 nM
- CCC1c2cc(OC)c(OC)cc2C(=O)N1c1ccnc(-c2ncc(F)cn2)n1 (single isomer, unassigned) [Example 72, 3-Ethyl-2-(5′-fluoro-[2,2′-bipyrimidin]-4-yl)-5,6-dimethoxyisoindolin-1-one] — 4.1-fold lower, 39 nM
- CCC1c2cc(OC)c(C)cc2C(=O)N1c1ccnc(-c2ncccn2)n1 (single isomer, unassigned) [Example 4, 2-([2,2′-Bipyrimidin]-4-yl)-3-ethyl-5-methoxy-6-methylisoindolin-1-one] — 20-fold lower, 8 nM
- CCC1c2cc(OC)c(OC)cc2C(=O)N1c1ccnc(-c2ncc(F)cn2)n1 (single isomer, unassigned) [Example 73, 3-Ethyl-2-(5′-fluoro-[2,2′-bipyrimidin]-4-yl)-5,6-dimethoxyisoindolin-1-one] — 6.2-fold higher, 1000 nM
- CCC1c2cc(OC)c(OC)cc2C(=O)N1c1ccnc(-c2ncccn2)n1 (single isomer, unassigned) [Example 2, 2-([2,2′-Bipyrimidin]-4-yl)-3-ethyl-5,6-dimethoxyisoindolin-1-one] — 12-fold lower, 13 nM
- COc1ccc(C2c3cc(OC)c(OC)cc3C(=O)N2c2ccnc(-c3ncccn3)n2)cc1 (single isomer, unassigned) [Example 10, 2-([2,2′-Bipyrimidin]-4-yl)-5,6-dimethoxy-3-(4-methoxyphenyl)isoindolin-1-one] — 12-fold lower, 13 nM
- CCC1c2cc(OC)c(OC)cc2C(=O)N1c1ccnc(-c2ncccn2)c1 (single isomer, unassigned) [Example 34, 3-Ethyl-5,6-dimethoxy-2-(2-(pyrimidin-2-yl)pyridin-4-yl)isoindolin-1-one] — 2.6-fold lower, 62 nM
- COc1cc2c(cc1OC)C(c1ccccn1)N(c1ccnc(-c3ncccn3)n1)C2=O (single isomer, unassigned) [Example 23, 2-([2,2′-Bipyrimidin]-4-yl)-5,6-dimethoxy-3-(pyridin-2-yl)isoindolin-1-one] — 3.1-fold higher, 500 nM
- COc1cc2c(cc1OC)C(Cc1ccccc1)N(c1ccnc(-c3ncccn3)n1)C2=O (single isomer, unassigned) [Example 15, 2-([2,2′-Bipyrimidin]-4-yl)-3-benzyl-5,6-dimethoxyisoindolin-1-one] — 250-fold higher, 40000 nM
- CCC1c2cc(OC)c(OC)cc2C(=O)N1c1ccnc(-c2ncccn2)n1 (single isomer, unassigned) [Example 3, 2-([2,2′-Bipyrimidin]-4-yl)-3-ethyl-5,6-dimethoxyisoindolin-1-one] — 6.2-fold higher, 1000 nM
- CCC1c2c(F)cc(Cl)cc2C(=O)N1c1ccnc(-c2ncccn2)n1 (single isomer, unassigned) [Example 9, 2-([2,2′-Bipyrimidin]-4-yl)-6-chloro-3-ethyl-4-fluoroisoindolin-1-one] — 31-fold higher, 5000 nM
- CCC1c2cc(OC)c(OC)cc2C(=O)N1c1cc(F)nc(-c2ncccn2)n1 (single isomer, unassigned) [Example 69, 3-Ethyl-2-(6-fluoro-[2,2′-bipyrimidin]-4-yl)-5,6-dimethoxyisoindolin-1-one] — 310-fold higher, 49000 nM
- COc1cc2c(cc1OC)C(c1ccccc1)N(c1nc(-c3ncccn3)ncc1F)C2=O (single isomer, unassigned) [Example 71, 2-(5-Fluoro-[2,2′-bipyrimidin]-4-yl)-5,6-dimethoxy-3-phenylisoindolin-1-one] — 6.2-fold higher, 1000 nM
- CCC1c2cc(OC)c(C)cc2C(=O)N1c1ccnc(-c2ncccn2)n1 (single isomer, unassigned) [Example 5, 2-([2,2′-Bipyrimidin]-4-yl)-3-ethyl-5-methoxy-6-methylisoindolin-1-one] — 6.2-fold higher, 1000 nM
- COc1cccc(C2c3cc(OC)c(OC)cc3C(=O)N2c2ccnc(-c3ncccn3)n2)c1 (single isomer, unassigned) [Example 12, 2-([2,2′-Bipyrimidin]-4-yl)-5,6-dimethoxy-3-(3-methoxyphenyl)isoindolin-1-one] — 32-fold lower, 5 nM
- COc1ccc(C2c3cc(OC)c(OC)cc3C(=O)N2c2ccnc(-c3ncccn3)n2)cc1 (single isomer, unassigned) [Example 11, 2-([2,2′-Bipyrimidin]-4-yl)-5,6-dimethoxy-3-(4-methoxyphenyl)isoindolin-1-one] — 25-fold higher, 4000 nM
- CCC1c2cc(Cl)cc(F)c2C(=O)N1c1ccnc(-c2ncccn2)n1 (single isomer, unassigned) [Example 20, 2-([2,2′-Bipyrimidin]-4-yl)-5-chloro-3-ethyl-7-fluoroisoindolin-1-one] — 3.6-fold lower, 45 nM
- CCC1c2cc(OC)c(Cl)cc2C(=O)N1c1ccnc(-c2ncccn2)n1 (single isomer, unassigned) [Example 7, 2-([2,2′-Bipyrimidin]-4-yl)-6-chloro-3-ethyl-5-methoxyisoindolin-1-one] — 50-fold higher, 8000 nM
- CCC1c2cc(OC)c(OC)cc2C(=O)N1c1ccnc(-c2ncccn2)c1 (single isomer, unassigned) [Example 33, 3-Ethyl-5,6-dimethoxy-2-(2-(pyrimidin-2-yl)pyridin-4-yl)isoindolin-1-one] — 23-fold lower, 7 nM
- COc1cccc(C2c3cc(OC)c(OC)cc3C(=O)N2c2ccnc(-c3ncccn3)n2)c1 (single isomer, unassigned) [Example 13, 2-([2,2′-Bipyrimidin]-4-yl)-5,6-dimethoxy-3-(3-methoxyphenyl)isoindolin-1-one] — 6.2-fold higher, 1000 nM
- COCCC1c2cc(F)c(OC)cc2C(=O)N1c1ccnc(-c2ncccn2)n1 (single isomer, unassigned) [Example 53, 2-([2,2′-Bipyrimidin]-4-yl)-5-fluoro-6-methoxy-3-(2-methoxyethyl)isoindolin-1-one] — 4.2-fold lower, 38 nM
